Assay: Body weight, organ weights and feed intake of db/db mice
Format: in vivo
Description: Experiment 1: mice (n=25) were fed high-fat (>40% energy from fat), isocaloric, isonitrogenous diets containing 0, 100, 200, 400, and 800 mg of a racemic (±) ABA mixture/kg diet for 36 days (Table 1) (Sigma). These doses were chosen based on the standard concentrations of TZDs utilized in the treatment of NIDDM. The mice were weighed and their food intake was recorded daily. On day 36 of the study fasted mice (12 h) were bled through the caudal vein and fasting blood glucose concentrations were determined. To investigate the ability of ABA to normalize glucose concentrations, an intraperitoneal glucose tolerance test (IPGTT) was performed on day 36 on the fasted mice. Briefly, mice were bled at 0, 10, 25, and 45 minutes following the administration of glucose (2 g/kg) for measurement of plasma glucose levels. […] Weights were recorded for WAT, interscapular brown adipose tissue (BAT), and liver.
Experiment 2: The ABA dose utilized (100 mg ABA/kg) was based on the results obtained from the IPGTT of the ABA titration study (i.e., Experiment 1). Mice in experiment 2 were fed high-fat diets containing 0 or 100 mg ABA/kg for 36 days. Their body weights and food intake was recorded daily, and blood was collected on day 36 of the study during an IPGTT. This IPGTT included one additional 100 minutes time point. […] Weights were recorded for abdominal WAT, BAT, and liver.

In the case of CC1=CC(=O)CC(C)(C)C1(O)/C=C/C(C)=C\C(=O)O (racemic) [ABA, abscisic acid], the “final body weight less than control mice” value (41.34 g vs 43.54 g, not statistically significant) is reported as “approximately 2.2 grams”, the Total feed intake (between treatment groups) is reported as “did not differ significantly” and the Final body weight (db/db mice, 100 mg ABA/kg diet, day 36) is reported as “no significant differences in body weights”.
